Data as given in article PMC10673995, “Discovery of a novel cardiac-specific myosin modulator using artificial intelligence-based virtual screening” (Nature Communications, 2023).
Values joined by “and” are separate entries in the source; they are usually repeats but may differ in a detail not shown here. Equal values may be shown once.

System: isolated Langendorff-perfused rat hearts
Test: Langendorff-perfused rat hearts, haemodynamic parameters
Parameters: key to LVSP, individual hearts / LVEDP, individual hearts: pressure in mmHg; Max (Figure 5c): unit not given here
Settings: for Max (Figure 5c): one column per heart; for LVSP representative trace, ON: during perfusion with compound
Protocol: Next, we tested for the functional effects of F10 in isolated Langendorff-perfused rat hearts. Hearts were initially stabilized in modified Krebs-Henseleit (KH) solution for about 25–30 min and subsequently perfused with KH solution containing 20 μmol L^−1 F10 for 5 mins to reach a new steady state.
Rat hearts were Langendorff-perfused as described previously. Briefly, Wistar rats (Rattus norvegicus, male, 200–250 g, 7 weeks old) were anesthetized by injection of 0.9 mL sodium pentobarbitone 20% (w/v). […] The aorta was cannulated and secured with sutures (Mersilk 3‐0; Ethicon, Somerville, NJ, USA). Hearts were perfused at a constant perfusion pressure of 70 ± 2 mmHg using a peristaltic pump (Gilson Minipuls 4, Middleton, WI, USA) and a feedback control system (STH Pump Controller; AD Instruments, Oxford, UK). […] A fluid‐filled balloon, attached to a pressure transducer, was inserted into the left ventricle and inflated to give an end‐diastolic pressure between 3 and 8 mmHg. Left ventricular pressure (LVP), perfusion pressure, coronary flow and arterial and venous oxygen tensions were recorded using a PowerLab recorder and LabChart 8.0 software (ADInstruments). Functional parameters were averaged for ∼80 cardiac cycles at 5 min intervals.

[1] = 20 μmol L^−1 F10 or 1 μmol L^−1 Mavacamten
[2] = Time 11 min, during perfusion with 20 μmol L^−1 F10 or 1 μmol L^-1 Mavacamten
[3] = Time 12 min, during perfusion with 20 μmol L^−1 F10 or 1 μmol L^-1 Mavacamten
[4] = Time 13 min, during perfusion with 20 μmol L^−1 F10 or 1 μmol L^-1 Mavacamten
[5] = Time 14 min, during perfusion with 20 μmol L^−1 F10 or 1 μmol L^-1 Mavacamten
[6] = Time 15 min, during perfusion with 20 μmol L^−1 F10 or 1 μmol L^-1 Mavacamten

CC(C)n1c(=O)cc(N[C@@H](C)c2ccccc2)[nH]c1=O [Mavacamten]
effect on coronary perfusion / coronary flow [1]: without affecting
effect on heart rate [1]: without affecting
effect on left ventricular end-diastolic pressure (LVEDP) [1]: did not affect
Max (Figure 5c) (Time 0 min): 3876.58 and 5238.56 and 5331.08 and 5274.63
Max (Figure 5c) (Time 1 min): 3763.48 and 5575.44 and 5372.46 and 4664.37
Max (Figure 5c) (Time 2 min): 3604.67 and 5570.63 and 5457.56 and 4849.22
Max (Figure 5c) (Time 3 min): 3616.7 and 5958.05 and 5555.1 and 4920.12
Max (Figure 5c) (Time 4 min): 3720.17 and 5852.17 and 5485.6 and 4634
Max (Figure 5c) (Time 5 min): 3611.89 and 6003.77 and 5528.57 and 4575.4
Max (Figure 5c) (Time 6 min): 3669.64 and 6398.4 and 5572.15 and 4575.4
Max (Figure 5c) (Time 7 min): 3638.35 and 5690.95 and 5454.91 and 4575.4
Max (Figure 5c) (Time 8 min): 3568.57 and 5926.76 and 5613.04 and 4575.4
Max (Figure 5c) (Time 9 min): 3638.35 and 6073.55 and 6702.43 and 4575.4
Max (Figure 5c) (Time 10 min): 3558.95 and 6376.75 and 5920.41 and 4694.75
LVEDP, individual hearts [2]: 1 mmHg (2×) and 2 mmHg (2×) and 3 mmHg
LVSP, individual hearts [2]: 91 and 157 and 150 and 205 and 152
Max (Figure 5c) (Time 11 min): 3462.69 and 5852.17 and 5171.55 and 4904.93
LVEDP, individual hearts [3]: 0 and 1 (2×) and 2 and 3
LVSP, individual hearts [3]: 71 and 113 and 134 and 163 and 147
Max (Figure 5c) (Time 12 min): 2779.3 and 4057.05 and 4519.31 and 4773.25
LVEDP, individual hearts [4]: 0 and 1 (2×) and 3 and 5
LVSP, individual hearts [4]: 60 and 95 and 115 and 137 and 135
Max (Figure 5c) (Time 13 min): 2415.94 and 3070.46 and 3716.1 and 3709.72
LVEDP, individual hearts [5]: 0 and 1 (2×) and 2 and 5
LVSP, individual hearts [5]: 51 and 81 and 104 and 115 and 105
Max (Figure 5c) (Time 14 min): 2076.65 and 2695.08 and 3441.74 and 3481.82
LVEDP, individual hearts [6]: 0 and 1 (2×) and 2 and 7
LVSP, individual hearts [6]: 45 and 71 and 97 and 99 and 100
Max (Figure 5c) (Time 15 min): 1876.93 and 2447.23 and 3260.21 and 3233.66
LVEDP, individual hearts (Time 16 min, after washout): 0 and 1 (2×) and 3 and 5
LVSP, individual hearts (Time 16 min, after washout): 44 and 65 and 100 and 90 and 98
LVEDP, individual hearts (Time 17 min, after washout): 0 and 1 (2×) and 3 and 2
LVSP, individual hearts (Time 17 min, after washout): 49 and 71 and 103 and 101 and 98
LVEDP, individual hearts (Time 18 min, after washout): 1 mmHg (4×) and 3 mmHg
LVSP, individual hearts (Time 18 min, after washout): 52 and 78 and 106 and 103 and 96
LVEDP, individual hearts (Time 19 min, after washout): 1 mmHg (4×) and 2 mmHg
LVSP, individual hearts (Time 19 min, after washout): 55 and 83 and 109 (2×) and 98
LVEDP, individual hearts (Time 20 min, after washout): 1 mmHg (3×) and 2 mmHg (2×)
LVSP, individual hearts (Time 20 min, after washout): 58 and 87 and 114 (2×) and 98
Max (Figure 5c) (Time 20 min): 2218.63 and 2954.96 and 3682.2 and 4327.58
LVEDP, individual hearts (Time 21 min, after washout): 1 mmHg (3×) and 2 mmHg (2×)
LVSP, individual hearts (Time 21 min, after washout): 60 and 101 (2×) and 118 (2×)
Max (Figure 5c) (Time 21 min): 2317.29 and 3027.15 and 3768.27 and 4469.39
LVEDP, individual hearts (Time 22 min, after washout): 1 mmHg (4×) and 0 mmHg
LVSP, individual hearts (Time 22 min, after washout): 63 and 96 and 122 and 121 and 125
Max (Figure 5c) (Time 22 min): 2358.19 and 3503.6 and 3945.22 and 4568.14
LVEDP, individual hearts (Time 23 min, after washout): 1 mmHg (2×) and 0 mmHg and 2 mmHg and 3 mmHg
LVSP, individual hearts (Time 23 min, after washout): 66 and 99 and 125 and 126 and 103
Max (Figure 5c) (Time 23 min): 2526.64 and 3729.79 and 4137.98 and 4461.79
LVEDP, individual hearts (Time 24 min, after washout): 1 mmHg (4×) and 0 mmHg
LVSP, individual hearts (Time 24 min, after washout): 67 and 106 and 126 and 130 and 104
Max (Figure 5c) (Time 24 min): 2654.17 and 3905.46 and 4295.47 and 4963.17
LVEDP, individual hearts (Time 25 min, after washout): 1 and 0 (2×) and 3 and 2
LVSP, individual hearts (Time 25 min, after washout): 67 and 105 and 127 and 133 and 110
Max (Figure 5c) (Time 25 min): 2752.83 and 3729.79 and 4394.02 and 5097.38
LVSP representative trace, OFF (after washout, t 0 s): 97.9459 mmHg
LVSP representative trace, OFF (after washout, t 10 s): 98.66 mmHg
LVSP representative trace, OFF (after washout, t 20 s): 99.4941 mmHg
LVSP representative trace, OFF (after washout, t 30 s): 99.8652 mmHg
LVSP representative trace, OFF (after washout, t 40 s): 99.9074 mmHg
LVSP representative trace, OFF (after washout, t 50 s): 100.799 mmHg
LVSP representative trace, OFF (after washout, t 60 s): 101.94 mmHg
LVSP representative trace, OFF (after washout, t 70 s): 102.076 mmHg
LVSP representative trace, OFF (after washout, t 80 s): 102.473 mmHg
LVSP representative trace, OFF (after washout, t 90 s): 103.301 mmHg
LVSP representative trace, OFF (after washout, t 100 s): 104.178 mmHg
LVSP representative trace, OFF (after washout, t 110 s): 104.015 mmHg
LVSP representative trace, OFF (after washout, t 120 s): 104.172 mmHg
LVSP representative trace, OFF (after washout, t 130 s): 104.333 mmHg
LVSP representative trace, OFF (after washout, t 140 s): 104.863 mmHg
LVSP representative trace, OFF (after washout, t 150 s): 105.62 mmHg
LVSP representative trace, OFF (after washout, t 160 s): 106.146 mmHg
LVSP representative trace, OFF (after washout, t 170 s): 107.035 mmHg
LVSP representative trace, OFF (after washout, t 180 s): 107.188 mmHg
LVSP representative trace, OFF (after washout, t 190 s): 108.073 mmHg
LVSP representative trace, OFF (after washout, t 200 s): 108.759 mmHg
LVSP representative trace, OFF (after washout, t 210 s): 109.171 mmHg
LVSP representative trace, OFF (after washout, t 220 s): 109.899 mmHg
LVSP representative trace, OFF (after washout, t 230 s): 110.383 mmHg
LVSP representative trace, OFF (after washout, t 240 s): 111.699 mmHg
LVSP representative trace, OFF (after washout, t 250 s): 111.591 mmHg
LVSP representative trace, OFF (after washout, t 260 s): 112.354 mmHg
LVSP representative trace, OFF (after washout, t 270 s): 113.909 mmHg
LVSP representative trace, OFF (after washout, t 280 s): 115.189 mmHg
LVSP representative trace, OFF (after washout, t 290 s): 115.643 mmHg
LVSP representative trace, OFF (after washout, t 300 s): 115.694 mmHg
LVSP representative trace, OFF (after washout, t 310 s): 117.014 mmHg
LVSP representative trace, OFF (after washout, t 320 s): 117.329 mmHg
LVSP representative trace, OFF (after washout, t 330 s): 117.56 mmHg
LVSP representative trace, OFF (after washout, t 340 s): 118.377 mmHg
LVSP representative trace, OFF (after washout, t 350 s): 118.795 mmHg
LVSP representative trace, OFF (after washout, t 360 s): 118.884 mmHg
LVSP representative trace, OFF (after washout, t 370 s): 120.043 mmHg
LVSP representative trace, OFF (after washout, t 380 s): 121.007 mmHg
LVSP representative trace, OFF (after washout, t 390 s): 121.543 mmHg
LVSP representative trace, OFF (after washout, t 400 s): 122.385 mmHg
LVSP representative trace, ON (t 0 s): 185.674 mmHg
LVSP representative trace, ON (t 10 s): 179.044 mmHg
LVSP representative trace, ON (t 20 s): 172.645 mmHg
LVSP representative trace, ON (t 30 s): 172.645 mmHg
LVSP representative trace, ON (t 40 s): 172.645 mmHg
LVSP representative trace, ON (t 50 s): 163.036 mmHg
LVSP representative trace, ON (t 60 s): 160.436 mmHg
LVSP representative trace, ON (t 70 s): 155.482 mmHg
LVSP representative trace, ON (t 80 s): 149.519 mmHg
LVSP representative trace, ON (t 90 s): 144.889 mmHg
LVSP representative trace, ON (t 100 s): 139.74 mmHg
LVSP representative trace, ON (t 110 s): 137.111 mmHg
LVSP representative trace, ON (t 120 s): 131.856 mmHg
LVSP representative trace, ON (t 130 s): 128.177 mmHg
LVSP representative trace, ON (t 140 s): 123.963 mmHg
LVSP representative trace, ON (t 150 s): 121.031 mmHg
LVSP representative trace, ON (t 160 s): 117.5 mmHg
LVSP representative trace, ON (t 170 s): 114.951 mmHg
LVSP representative trace, ON (t 180 s): 110.93 mmHg
LVSP representative trace, ON (t 190 s): 108.804 mmHg
LVSP representative trace, ON (t 200 s): 106.216 mmHg
LVSP representative trace, ON (t 210 s): 103.076 mmHg
LVSP representative trace, ON (t 220 s): 101.63 mmHg
LVSP representative trace, ON (t 230 s): 99.0368 mmHg
LVSP representative trace, ON (t 240 s): 96.0294 mmHg
LVSP representative trace, ON (t 250 s): 94.9632 mmHg
LVSP representative trace, ON (t 260 s): 93.4811 mmHg
LVSP representative trace, ON (t 270 s): 90.0331 mmHg
LVSP representative trace, ON (t 280 s): 88.9689 mmHg
